Test results from patent US9297017B2, “Methods and compositions for targeted protein degradation” (University of Washington, priority 2010, dated 2016).
Values joined by “and” are separate entries in the source; they are usually repeats but may differ in a detail not shown here. Equal values may be shown once.

What was measured:
[1] = molecular target: T1, COI1-JAZ6 complex (Arabidopsis thaliana, UniProt O04197+Q9C9E3); assay: Competition binding with 100 nM 3H-coronatine; settings: relative to (3R,7S)-JA-Ile
T1 construct: Full-length Arabidopsis thaliana COI1 and ASK1 were co-expressed; Full-length JAZ substrate proteins were expressed as 6×His-fusion proteins in Escherichia coli; GST (cleaved yes); 6xHis; made in house; host or cells: Hi5 insect cells (COI1/ASK1); Escherichia coli (JAZ6)
T1 sequence (O04197 1-592): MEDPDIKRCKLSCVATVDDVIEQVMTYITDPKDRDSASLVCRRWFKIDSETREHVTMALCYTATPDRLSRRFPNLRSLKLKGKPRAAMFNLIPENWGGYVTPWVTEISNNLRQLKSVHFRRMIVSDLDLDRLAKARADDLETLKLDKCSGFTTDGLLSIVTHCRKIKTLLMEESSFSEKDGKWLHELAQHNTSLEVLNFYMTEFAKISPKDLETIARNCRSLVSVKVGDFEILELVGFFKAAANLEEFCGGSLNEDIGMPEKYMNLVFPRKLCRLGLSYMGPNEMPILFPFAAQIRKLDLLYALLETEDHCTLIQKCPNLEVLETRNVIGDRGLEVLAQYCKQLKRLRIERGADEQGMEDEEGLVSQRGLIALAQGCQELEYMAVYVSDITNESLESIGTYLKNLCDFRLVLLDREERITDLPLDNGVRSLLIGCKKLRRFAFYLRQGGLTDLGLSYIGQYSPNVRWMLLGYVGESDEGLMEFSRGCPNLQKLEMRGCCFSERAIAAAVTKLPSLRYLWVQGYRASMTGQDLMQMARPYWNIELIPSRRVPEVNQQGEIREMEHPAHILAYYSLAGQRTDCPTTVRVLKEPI
T1 sequence (Q39255 1-160 partner): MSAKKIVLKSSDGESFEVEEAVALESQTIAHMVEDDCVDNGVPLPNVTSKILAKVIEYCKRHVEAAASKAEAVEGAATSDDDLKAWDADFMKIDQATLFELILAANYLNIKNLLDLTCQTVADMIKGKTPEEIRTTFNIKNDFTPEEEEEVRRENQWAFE
T1 sequence (Q9C9E3 1-269): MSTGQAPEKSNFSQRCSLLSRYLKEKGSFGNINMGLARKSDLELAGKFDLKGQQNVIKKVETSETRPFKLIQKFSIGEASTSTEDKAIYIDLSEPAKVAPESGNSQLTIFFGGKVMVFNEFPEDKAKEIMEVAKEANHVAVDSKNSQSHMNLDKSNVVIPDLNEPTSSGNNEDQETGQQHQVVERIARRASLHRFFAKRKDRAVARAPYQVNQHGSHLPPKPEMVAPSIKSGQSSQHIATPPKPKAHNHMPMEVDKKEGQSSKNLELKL
From the text: (§1) (^3H)-labeled coronatine was synthesized by Amersham. Full-length Arabidopsis thaliana COI1 and ASK1 were co-expressed as a glutathione S-transferase (GST) fusion protein and an untagged protein, respectively, in Hi5 suspension insect cells. The COI1/ASK1 complex was isolated from the soluble cell lysate by glutathione affinity chromatography. After on-column tag cleavage by tobacco etch virus protease, the complex was further purified by anion exchange and gel filtration chromatography and concentrated by ultrafiltration to 12-18 mg ml^−1. Full-length JAZ substrate proteins were expressed as 6×His-fusion proteins in Escherichia coli and purified on Ni-NTA resin with subsequent dialysis into 20 mM Tris-HCl, pH 8.0, 200 mM NaCl, and 10% glycerol.
(§2) Radioligand binding was assayed on purified proteins, with 2 mg COI1/ASK1 complex and JAZ proteins at a 1:3 molar ratio. Reactions were prepared in […] final volume and in a binding buffer containing 20 mM Tris-HCl 200 mM NaCl, and 10% glycerol. Saturation binding experiments were conducted with serial dilutions of 3H-coronatine in binding buffer. Nonspecific binding was determined in the presence of […] coronatine. Competition binding experiments were conducted with serial dilutions of JA-Ile in the presence of 100 nM ^3H coronatine with nonspecific binding determined in the presence of […] coronatine. Total binding was determined in the presence of vehicle only. Two-point binding experiments were performed in the presence of 100 nM or 300 nM ^3H-coronatine with nonspecific binding determined in the presence of […] coronatine. Following incubation with mixing at 4° C., all samples were collected with a cell harvester (Brandel, Gaithersburg, Md.) on polyethyleneimine (Sigma)-treated filters. […] Saturation binding experiments were analyzed by nonlinear regression, competition binding experiments by nonlinear regression with Ki calculation as described previously (Cheng 1973), and concentration-response data by sigmoidal dose-response curve fitting, all using GraphPad Prism version 4.00 for MacOSX.

[2] = molecular target: T1, COI1-JAZ6 complex; assay: Saturation radioligand binding of 3H-coronatine to COI1/ASK1 in the presence of JAZ6
From the text: as §1, §2

[3] = molecular target: T2, COI1 (Arabidopsis thaliana, UniProt O04197); assay: Radioligand binding of 3H-coronatine to COI1 alone
T2 construct: Full-length Arabidopsis thaliana COI1 and ASK1 were co-expressed; GST (cleaved yes); made in house; host or cells: Hi5 insect cells (COI1/ASK1); JAZ peptides synthetic
T2 sequence (O04197 1-592): T1 sequence (O04197 1-592)
T2 sequence (Q39255 1-160 partner): T1 sequence (Q39255 1-160 partner)
From the text: as §1, §2

## CC[C@H]1C=C(C(=O)N[C@@]2(C(=O)O)C[C@@H]2CC)[C@H]2CCC(=O)[C@H]2C1 [coronatine]
[1]
  Affinity of coronatine over (3R,7S)-JA-Ile in binding assays: approximately tenfold
[2]
  Binding affinity for COI1/JAZ6 complex: high affinity
[2]; COI1/JAZ6 complex
  Concentration at which binding reached the level of saturation: 300 nM
[2]; COI1/JAZ6 complex, listed as 3H-coronatine
  Kd: 48 nM and 68 nM
[3]; 300 nM coronatine
  Specific binding to COI1 alone: < 2%
[3]
  Binding affinity for COI1 alone: minimal binding affinity
[3]; listed as 3H-coronatine
  Binding affinity for COI1 alone: no appreciable binding affinity
